The target of data set [1] is CDK7/Cyclin H/MNAT1 (Homo sapiens, UniProt P50613). As to the kind of experiment: Inhibition of CDK7/Cyclin H/MNAT1 kinase activity (ADP-Glo). It counts as biochemical. Conditions: mean value from several measurements; read-out: IC50 CDK7/Cyclin H/MNAT. How it is done:
(§1) Measurements were carried out in a 5 μl reaction volume using a 384-well plate (Corning Inc., order no. 4513). The analyzed substances were titrated from 50 μM in increments of 4 at 11 concentration points in a normal strength kinase buffer A (Thermo Fisher Scientific Inc, cat. no. PV3189) supplemented with DTT (Sigma, orde. no. 646563-10X.5ML) and prepared with water (Panreac, order no. 701074). Kinase was diluted in an analogous buffer, mixed with test compounds in plate wells and preincubated for 10 minutes at 25° C. Following incubation, a mixture of reaction substrate (CDKtide (SignalChem, order no. C06-58) or Histone H1 (SignalChem, order no. H10-54N) or PDKtide (SignalChem, order no. P10-58) and ATP (SignalChem, order no. V915B) prepared on a normal strength kinase buffer A was added. 1% solution of dimethyl sulfoxide (DMSO) (Sigma-Aldrich, order no. D2438) in the reaction volume was used as a negative control. The final concentrations of all reaction components are shown in Table 5. The plate was centrifuged at 400 rcf (Eppendorf, 5804 R) for 1 minute and incubated for 40-60 minutes at 25° C. The amount of ATP consumed in the kinase reaction was then measured using the ADP-Glo™ detection system. Luminescence signal was measured using Spark 20M tablet multifunction reader (Tecan Group Ltd, Switzerland). IC50 value was calculated using Magellan 7.2 (Tecan Group Ltd, Switzerland) by approximating experimental points by four-parameter model with the optimization by Levenberg-Marquardt:
(§2) [formula] • where A is the upper asymptote; D is the lower asymptote; C is IC50, half-maximal inhibitory concentration of kinase, nM; B is the curvature (slope).
Background: In ADP-Glo the light output rises with the ADP produced.

Data set [2] is described as follows: General cytotoxicity on primary differentiated HepaRG cells (72 h). It counts as cell-based. Conditions: human, general toxicity, mean value from several measurements. The source says: General cytotoxicity of CDK7 inhibitors according to the present invention was investigated using primary differentiated HepaRG cells (Biopredic Int, order no. HPR101). A week before the measurement, the cells were thawed and maintained in Basal hepatic cell medium (Biopredic Int, order no. MIL700079) supplemented with HepaRG maintenance/metabolism medium supplement with antibiotics (Biopredic Int, order no. ADD620C). The medium in vials with cells was changed every 2-3 days. The night before the test, the cells were plated in wells of 96-well plates (Corning Inc., order no. 3599) at 25×10^3 cells in 100 μl of medium per well. The next day, test compounds were introduced into plate wells with cells, untitrated at a concentration ranging from 200 μM to 0.2 nM, and incubated for 72 hours. Cell viability was assessed as described above.

In data set [3] the target is CDK2/Cyclin A (Homo sapiens, UniProt P24941). As to the kind of experiment: Inhibition of CDK2/Cyclin A kinase activity (ADP-Glo). Type of data set: biochemical. Conditions: mean value from several measurements; read-out: IC50 CDK2/Cyclin A. How it is done: as §1, §2
Data set [4] has as its system MDA-MB-468 (triple negative breast cancer). As to the kind of experiment: Antiproliferative assay on MDA-MB-468 cells (AlamarBlue, 96 h). Type of data set: cell-based. Conditions: Homo sapiens, mean value from several measurements. How it is done: The antiproliferative activity of CDK7 inhibitors according to the present invention was evaluated in a cell test using continuous cell cultures: MDA-MB-468 (triple negative breast cancer, ATCC® HTB-132™) and NCl-H82 (small cell lung cancer, ATCC® HTB-175™) using a viable AlamarBlue dye (Thermo Fisher Scientific Inc, order no. DAL1100). The cells were grown in DMEM (PanEco, order no. C330π) and RPMI-1640 (PanEco, order no. C330π), respectively. The basal growth medium was enriched with L-glutamine at a concentration of 2 mM (PanEco, order no. Φ032) and 10% fetal bovine serum (Gibco, order no. 16140-071). The night before measurement, MDA-MB-468 adherent cells were detached from plastic with a solution of trypsin-EDTA (PanEco, order no. Π039π), the solution was then inactivated by a DMEM complete medium, centrifuged at 1000 RPM (Eppendorf, 5804 R), a suspension of cells was prepared in a DMEM complete medium, introduced into 96-well culture plates (Corning Inc, order no. 3599) at 8×10^3 cells in 100 μl of medium per well. The next day, test compounds were dissolved in DMSO and diluted with a DMEM complete medium to a final concentration ranging from 50 μM to 10 pM. Diluted compounds in a volume of 50 μl were introduced into the plate wells with cells in triplicates (the final concentration of DMSO was no more than 1%) and incubated at 37° C. in an incubator with 5% CO2 for 96 hours. NCl-H82 suspension cell line was prepared on the day of the analysis. 10×10^3 cells in 100 μl of an RPMI-1640 complete medium were added to each well of a 96-well plate. The procedure for sample dilution is as described above. Cells with test compounds were incubated at 37° C. in an incubator with 5% CO2 for 120 hours. Following incubation, […] of AlamarBlue reagent (Thermo Fisher Scientific Inc., order no. DAL1100) was added to the wells, the contents of the plates were stirred in an orbital shaker (Biosan, Latvia), then further incubated for 5.5-6 hours at 37° C. in an incubator with 5% CO2. The number of viable cells was detected using the Infinite M200Pro microplate spectrophotometer (Tecan Group Ltd, Switzerland) by way of measuring a fluorescent signal at an excitation wavelength (λEx) of 540 nm and an emission wavelength (λEm) of 590 nm.
IC50 value was calculated using the Magellan software (Tecan Group Ltd, Switzerland) by approximating experimental points by four-parameter model with the optimization by Levenberg-Marquardt: […]
A general note: The colour change of resazurin is a common sign of viable cells or microbes.

Data set [5] addresses CDK9/Cyclin K (Homo sapiens, UniProt P50750). Put plainly: Inhibition of CDK9/Cyclin K kinase activity (ADP-Glo). It counts as biochemical. To be noted: mean value from several measurements; read-out: IC50 CDK9/Cyclin K. Here is the method: as §1, §2

One may read the CC50 as the concentration at which the toxic effect on the cells reaches its halfway point. High values mean better tolerance by the cells, low ones harm at low concentration.

A value given as a limit tells only on which side of the number the result lay.

Chain of CDK7/Cyclin H/MNAT1 (P50613 whole entry): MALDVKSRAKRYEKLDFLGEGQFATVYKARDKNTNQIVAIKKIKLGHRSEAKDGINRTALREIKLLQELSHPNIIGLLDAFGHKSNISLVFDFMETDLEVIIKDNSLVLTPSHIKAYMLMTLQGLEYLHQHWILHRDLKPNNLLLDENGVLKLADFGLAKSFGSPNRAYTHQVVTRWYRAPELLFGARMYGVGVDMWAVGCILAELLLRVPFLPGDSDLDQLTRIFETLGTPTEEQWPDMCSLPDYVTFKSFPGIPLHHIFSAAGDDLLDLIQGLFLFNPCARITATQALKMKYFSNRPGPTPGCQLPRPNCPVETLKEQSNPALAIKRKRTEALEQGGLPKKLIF
Chain of CDK7/Cyclin H/MNAT1 (P51946 whole entry partner): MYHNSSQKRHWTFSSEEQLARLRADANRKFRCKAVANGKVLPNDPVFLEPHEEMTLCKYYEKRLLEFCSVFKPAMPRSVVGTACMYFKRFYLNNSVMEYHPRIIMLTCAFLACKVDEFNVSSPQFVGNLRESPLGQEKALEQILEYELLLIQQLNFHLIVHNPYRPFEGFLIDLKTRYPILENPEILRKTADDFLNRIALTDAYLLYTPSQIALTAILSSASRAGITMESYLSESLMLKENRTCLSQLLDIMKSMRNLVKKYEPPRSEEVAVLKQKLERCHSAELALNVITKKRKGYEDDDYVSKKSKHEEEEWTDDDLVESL
Chain of CDK7/Cyclin H/MNAT1 (P51948 whole entry partner): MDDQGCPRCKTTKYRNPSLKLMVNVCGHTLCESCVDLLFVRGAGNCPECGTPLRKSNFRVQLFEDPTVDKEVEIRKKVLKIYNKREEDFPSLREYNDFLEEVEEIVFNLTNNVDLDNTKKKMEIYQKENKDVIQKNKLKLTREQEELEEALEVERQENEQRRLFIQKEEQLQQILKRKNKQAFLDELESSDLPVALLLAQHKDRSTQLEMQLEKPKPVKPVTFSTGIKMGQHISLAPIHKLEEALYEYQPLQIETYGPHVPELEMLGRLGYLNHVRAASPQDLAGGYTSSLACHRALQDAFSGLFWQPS
Chain of CDK9/Cyclin K (P50750 whole entry): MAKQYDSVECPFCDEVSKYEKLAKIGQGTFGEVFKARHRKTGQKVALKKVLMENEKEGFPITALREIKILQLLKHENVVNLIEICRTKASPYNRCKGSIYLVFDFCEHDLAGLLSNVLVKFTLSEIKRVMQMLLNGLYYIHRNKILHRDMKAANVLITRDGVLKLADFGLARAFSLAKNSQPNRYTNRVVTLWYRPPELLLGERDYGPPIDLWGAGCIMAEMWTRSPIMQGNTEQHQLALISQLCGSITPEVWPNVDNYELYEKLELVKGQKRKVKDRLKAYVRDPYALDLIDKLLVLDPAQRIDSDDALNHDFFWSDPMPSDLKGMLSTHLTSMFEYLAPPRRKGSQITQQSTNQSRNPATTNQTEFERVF
Chain of CDK9/Cyclin K (O75909 whole entry partner): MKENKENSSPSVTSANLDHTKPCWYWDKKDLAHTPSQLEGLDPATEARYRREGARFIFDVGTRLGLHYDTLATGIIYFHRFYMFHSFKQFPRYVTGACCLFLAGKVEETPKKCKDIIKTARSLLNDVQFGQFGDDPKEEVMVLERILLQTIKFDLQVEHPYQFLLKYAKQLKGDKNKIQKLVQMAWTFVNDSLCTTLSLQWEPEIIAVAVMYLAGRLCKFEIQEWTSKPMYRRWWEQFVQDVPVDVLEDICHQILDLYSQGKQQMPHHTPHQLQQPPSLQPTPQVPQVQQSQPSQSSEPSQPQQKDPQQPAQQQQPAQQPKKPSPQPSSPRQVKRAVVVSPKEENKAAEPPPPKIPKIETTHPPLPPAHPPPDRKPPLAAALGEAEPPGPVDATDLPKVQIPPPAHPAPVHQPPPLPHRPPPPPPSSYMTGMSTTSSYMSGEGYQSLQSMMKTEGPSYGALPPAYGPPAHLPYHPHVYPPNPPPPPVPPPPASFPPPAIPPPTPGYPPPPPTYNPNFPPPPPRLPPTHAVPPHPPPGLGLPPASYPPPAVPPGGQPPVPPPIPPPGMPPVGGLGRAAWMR

As to `FC(F)(F)c1cnc(N[C@H]2CCCNC2)nc1-n1ccc2ccccc21` [CDK7_809, 4-(1H-indol-1-yl)-N-[(3S)-piperidin-3-yl]-5-(trifluoromethyl)py-rimidin-2-amine], the IC50 in data set [1] is 5 to 50 nM; in data set [3], above 200 nM; in data set [4], above 1000 nM. The compound further displayed a CC50 at 72 h in data set [2] above 2000 nM.
The matching figures for `Nc1ccccc1Nc1nc(N[C@H]2CCCNC2)ncc1C(F)(F)F` [CDK7_550, N4-(2-aminophenyl)-N2-[(3S)-piperidin-3-yl]-5-(trifluoromethyl) pyrimidine-2,4-diamine]: 50 to 200 nM, above 200 nM, above 1000 nM and above 2000 nM.
As to `CN1CCC[C@H](Nc2ncc(C(F)(F)F)c(-c3c[nH]c(C(=O)N(C)C)c3)n2)C1` [CDK7_1019], the IC50 in data set [1] is 5 to 50 nM; in data set [5], above 200 nM; in data set [3] it was above 200 nM. In addition, the CC50 at 72 h in data set [2] is above 2000 nM.
Turning to `NS(=O)(=O)c1cccc(Nc2nc(N[C@H]3CCCNC3)ncc2C(F)(F)F)c1` [CDK7_891, 3-[(2-{[(3S)-piperidin-3-yl]amino}-5-(trifluoromethyl)pyrimidin-4-yl)amino] benzene-1-sulfonamide], the figures for the IC50 in data set [1], in data set [3] and in data set [4] were 5 to 50 nM, above 200 nM and 100 to 1000 nM, respectively.
As to `FC(F)(F)c1cnc(N[C@H]2CCCNC2)nc1Cc1ccccc1` [CDK7_766, 4-benzyl-N-[(3S)-piperidin-3-yl]-5-(trifluoromethyl) pyrimidin-2-amine], the IC50 in data set [1] was 50 to 200 nM; in data set [3], above 200 nM; in data set [4], above 1000 nM. The compound also displayed a CC50 at 72 h in data set [2] above 2000 nM.
The matching figures for `FC(F)(F)c1cnc(N[C@H]2CCCNC2)nc1Oc1ccccc1` [CDK7_754, 4-phenoxy-N-[(3S)-piperidin-3-yl]-5-(trifluoromethyl) pyrimidin-2-amine]: 5 to 50 nM, above 200 nM, above 1000 nM and above 2000 nM.
As to `FC(F)(F)c1cnc(N[C@H]2CCCNC2)nc1-n1cnc2ccccc21` [CDK7_810, 4-(1H-1,3-benzodiazol-1-yl)-N-[(3S)-piperidin-3-yl]-5-(trifluoromethyl)py-rimidin-2-amine], the IC50 in data set [1] is 5 to 50 nM; in data set [3], above 200 nM; in data set [4] it was above 1000 nM. The CC50 at 72 h in data set [2] is above 2000 nM.
The matching figures for `CC(=O)Nc1ccccc1Nc1nc(N[C@H]2CCCNC2)ncc1C(F)(F)F` [CDK7_898, N-{2-[(2-{[(3S)-piperidin-3-yl]amino}-5-(trifluoromethyl)pyrimidin-4-yl)amino]phenyl} acetamide]: 5 to 50 nM, above 200 nM, 100 to 1000 nM and above 2000 nM.
On to `FC(F)(F)c1cnc(N[C@H]2CCCNC2)nc1Oc1cccc2cccnc12` [CDK7_830, N-[(3S)-piperidin-3-yl]-4-(quinolin-8-yloxy)-5-(trifluoromethyl) pyrimidin-2-amine], for which the CC50 at 72 h in data set [2] was above 2000 nM. This compound also displayed an IC50 in data set [4] above 1000 nM.
For `Cn1c(-c2cc(-c3nc(N[C@H]4CCCNC4)ncc3C(F)(F)F)c[nH]2)nc2ccccc21` [CDK7_1124, 4-[5-(1-methyl-1H-1,3-benzodiazol-2-yl)-1H-pyrrol-3-yl]-N-[(3S)-piperidin-3-yl]-5-(trifluoromethyl)py-rimidin-2-amine], the IC50 in data set [1] was 5 to 50 nM; in data set [5] it was above 200 nM; in data set [3] it was above 200 nM. For the same compound, in data set [2], the CC50 at 72 h is above 2000 nM.
The compound `CP(C)(=O)c1ccccc1Oc1nc(N[C@H]2CCCNC2)ncc1C(F)(F)F` [CDK7_897, 4-[2-(dimethylphos-phoryl)phenoxy]-N-[(3S)-piperidin-3-yl]-5-(trifluoromethyl) pyrimidin-2-amine] displayed a CC50 at 72 h in data set [2] above 2000 nM. For the same compound, the IC50 in data set [3] is above 200 nM.
On to `O=C1CN(c2nc(N[C@H]3CCCNC3)ncc2C(F)(F)F)c2ccccc2N1` [CDK7_900, 4-(2-{[(3S)-piperidin-3-yl]amino}-5-(trifluoromethyl)pyrimidin-4-yl)-1,2,3,4-tetrahydroquin-oxazolin-2-one], for which, in data set [2], the CC50 at 72 h is above 2000 nM.
As for `O=c1[nH]cc(-c2nc(N[C@H]3CCCNC3)ncc2C(F)(F)F)c2ccccc12` [CDK7_921, 4-(2-{[(3S)-piperidin-3-yl]amino}-5-(trifluoromethyl)pyrimidin-4-yl)-1,2-dihydroisoquin-olin-1-one], the IC50 in data set [1] lay within 5 to 50 nM.
In the case of `CN1CCc2c(-c3nc(N[C@H]4CCCNC4)ncc3C(F)(F)F)c[nH]c2C1=O` [CDK7_843, 6-methyl-3-(2-{[(3S)-piperidin-3-yl]amino}-5-(trifluoromethyl)pyrimidin-4-yl)-1H,4H,5H,6H, 7H-pyrrolo[2,3-c]pyridin-7-one], the IC50 was 5 to 50 nM in data set [1], above 200 nM in data set [5] and above 200 nM in data set [3].
In data set [2], `FC(F)(F)c1cnc(N[C@H]2CCCNC2)nc1Oc1cccc2c1NCCC2` [CDK7_829, N-[(3S)-piperidin-3-yl]-4-(1,2,3,4-tetrahydroquin-olin-8-yloxy)-5-(trifluoromethyl) pyrimidin-2-amine] displayed a CC50 at 72 h above 2000 nM. Moreover, the IC50 in data set [4] is above 1000 nM.
In the case of `CN(C)C(=O)c1c[nH]cc1-c1nc(N[C@H]2CCCNC2)ncc1C(F)(F)F` [CDK7_991, N,N-dimethyl-4-(2-{[(3S)-piperidin-3-yl]amino}-5-(trifluoromethyl)py-rimidin-4-yl)-1H-pyrrole-3-carboxamide], the IC50 in data set [1] was above 200 nM.
In the case of `CP(C)(=O)c1cccc(Nc2nc(N[C@H]3CCCNC3)ncc2C(F)(F)F)c1` [CDK7_888, N4-[3-(dimethylphos-phoryl)phenyl]-N2-[(3S)-piperidin-3-yl]-5-(trifluoromethyl) pyrimidine-2,4-diamine], the IC50 in data set [1] is 5 to 50 nM; in data set [3], above 200 nM; in data set [4] it was above 1000 nM. In data set [2], this compound displayed a CC50 at 72 h above 2000 nM.

Values taken from patent US20260137698A1, “CYCLIN-DEPENDENT KINASE 7 INHIBITORS” (JOINT STOCK COMPANY «BIOCAD», priority 2022, published 2026).
